From US20070161542A1, “Ptb1b photoprobes” (priority 2003, published 2007)

Assays:
purified Flag-PTP1B = target: T1, purified Flag-PTP1B (Homo sapiens, UniProt P18031); assay: Photolabeling of purified enzyme using radioactive photoprobes; type: binding
T1 construct: Flag-PTP1B (residues 1-320 as a flag fusion); made in house
T1 sequence (P18031 1-320): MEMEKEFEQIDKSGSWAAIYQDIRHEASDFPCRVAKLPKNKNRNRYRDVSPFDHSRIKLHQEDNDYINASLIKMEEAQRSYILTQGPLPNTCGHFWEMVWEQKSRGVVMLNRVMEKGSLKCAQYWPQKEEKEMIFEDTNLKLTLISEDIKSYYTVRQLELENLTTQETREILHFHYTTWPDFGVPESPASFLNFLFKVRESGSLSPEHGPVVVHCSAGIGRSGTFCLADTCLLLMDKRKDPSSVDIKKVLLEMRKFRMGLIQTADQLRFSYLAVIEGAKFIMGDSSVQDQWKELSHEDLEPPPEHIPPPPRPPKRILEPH
Procedure: (§1) All photolabeling experiments with purified enzymes or SF9 cell lysate overexpressing PTP1B were conducted in 96-well polystyrene plates in 50 μl BisTris buffer (50 mM BisTris pH 6.3, 2 mM EDTA, 1 mM DMH) containing enzyme (in BisTris buffer with 20% glycerol, 0.01% Triton X-100) or lysate and Example 9 (in water) or Example 1 (in water) at various concentrations and shaken for 1 min at room temperature. For competition studies, BzN-EJJ-AMIDE at various concentrations was added prior to the addition of the probes. The samples were then placed on ice for 5 min and irradiated with the 40 watt lamp at the standard 10 cm distance for 15 minutes. […] Autoradiography of the dried, coommassie-stained gel was done using Phosphorimaging (Molecular Devices) or by x-ray film (BioMax MS with intensifier screen, Kodak) and quantified by densitometry.
To study the labeling of PTP1B under physiological concentrations that exist in cells and tissues, ^125I -radiolabeled versions of Examples 9 and 1 were synthesized. […] The labeled enzyme was detected by phosphorimage (Molecular Devices) or x-ray film (BioMax MS with intensifier screen) from a SDS-PAGE gel after electrophoresis. From a titration of the purified PTP1B and probe, a detection limit for the two probes of Examples 9 and 1 were determined to be about 5 and 0.2 nM respectively, as detected by phosphorimaging. […]

[1] = target: T2, full-length PTP1B in SF9 lysate (Homo sapiens, UniProt P18031); assay: Photolabeling of SF9 cell lysate overexpressing PTP1B; type: binding; conditions: PTP1B 1% wt/wt protein
T2 construct: Infected SF9 cell lysate expressing full-length PTP1B (as a flag fusion); made in house; host or cells: SF9 insect cells (infected), used as crude lysate
T2 sequence (P18031 1-435): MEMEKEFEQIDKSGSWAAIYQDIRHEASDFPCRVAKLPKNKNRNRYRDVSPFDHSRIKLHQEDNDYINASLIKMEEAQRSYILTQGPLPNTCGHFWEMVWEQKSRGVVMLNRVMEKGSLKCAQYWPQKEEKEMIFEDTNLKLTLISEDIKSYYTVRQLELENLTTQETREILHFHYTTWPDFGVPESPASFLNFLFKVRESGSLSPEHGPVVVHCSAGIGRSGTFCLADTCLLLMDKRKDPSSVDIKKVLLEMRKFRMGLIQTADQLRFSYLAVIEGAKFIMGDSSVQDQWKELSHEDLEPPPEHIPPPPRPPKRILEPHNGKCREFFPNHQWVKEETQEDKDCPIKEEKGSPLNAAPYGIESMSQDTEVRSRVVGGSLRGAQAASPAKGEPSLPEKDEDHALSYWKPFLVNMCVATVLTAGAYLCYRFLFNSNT
Excerpt: Protein tyrosine phosphatases used in this study were expressed and purified using published procedures, as follows: (a) Flag-PTP1B (residues 1-320 as a flag fusion), Huyer et al. (29). (b) Flag-TCPTP (residues 1-281 as a flag fusion), Asante-Appiah et al. (30). (c) Flag-CD45 (residues 556-1268 as a flag fusion), Wang et al. (31). (d) Mutant C215S-PTP1B (residues 1-320 as a gst fusion), Skorey et al. (28). (e) Infected SF9 cell lysate expressing full-length PTP1B (as a flag fusion), Cromlish et al. (25). For studies using H2O2-inactivated Flag-PTP1B, 100 μl of 2 μg/ml PTP1B was incubated with 100 μl of 1 mM or 20 mM H2O2 for 15 min to obtain 50% or 100% inactivated enzyme respectively as determined by the enzyme kinetic assay.
as §1, with “temperature.” for “temperature. For competition studies, BzN-EJJ-AMIDE at various concentrations was added prior to the addition of the probes. The samples were then placed on ice for 5 min and irradiated with the 40 watt lamp at the standard 10 cm distance for 15 minutes.”, “densitometry. […]” for “densitometry.”

SMILES: NC(=O)[C@H](Cc1ccc(C(F)(F)P(=O)(O)O)cc1)NC(=O)[C@H](Cc1ccc(C(F)(F)P(=O)(O)O)cc1)NC(=O)c1cc(I)cc(C2(C(F)(F)F)N=N2)c1 [Example 9, 4-(Difluoro(phosphono)methyl)-N-(3-iodo-5-(3-(trifluoromethyl)-3H-diaziren-3-yl)benzoyl)-L-phenylalanyl-4-(difluoro(phosphono)methyl)-L-phenylalaninamide]
- efficiency of labeling (purified Flag-PTP1B; 7 nM probe, purified Flag-PTP1B, vs probe alone after gel electrophoresis): 9%
- detection limit of labeled PTP1B (purified Flag-PTP1B; 125I-radiolabeled probe, purified PTP1B, phosphorimaging): about 5 nM
- labeling of SF9 overexpressed PTP1B [1]: labeled SF9 overexpressed PTP1B
